We go through 1 compound from paper PMC6804443 (Acta Pharmaceutica Sinica. B, 2019).

What is called IC50 is the concentration that gives 50% inhibition. Read a high IC50 as a need for much substance. Broadly, the inhibition is the change of the read-out against control, counted positive when it falls. A lower inhibition goes with little suppression. In general, Km refers to the concentration of substrate that gives half-maximal velocity.

One data set has as its target T1, UGT1A1 (Homo sapiens, UniProt P22309).
T1 sequence (P22309 26-533): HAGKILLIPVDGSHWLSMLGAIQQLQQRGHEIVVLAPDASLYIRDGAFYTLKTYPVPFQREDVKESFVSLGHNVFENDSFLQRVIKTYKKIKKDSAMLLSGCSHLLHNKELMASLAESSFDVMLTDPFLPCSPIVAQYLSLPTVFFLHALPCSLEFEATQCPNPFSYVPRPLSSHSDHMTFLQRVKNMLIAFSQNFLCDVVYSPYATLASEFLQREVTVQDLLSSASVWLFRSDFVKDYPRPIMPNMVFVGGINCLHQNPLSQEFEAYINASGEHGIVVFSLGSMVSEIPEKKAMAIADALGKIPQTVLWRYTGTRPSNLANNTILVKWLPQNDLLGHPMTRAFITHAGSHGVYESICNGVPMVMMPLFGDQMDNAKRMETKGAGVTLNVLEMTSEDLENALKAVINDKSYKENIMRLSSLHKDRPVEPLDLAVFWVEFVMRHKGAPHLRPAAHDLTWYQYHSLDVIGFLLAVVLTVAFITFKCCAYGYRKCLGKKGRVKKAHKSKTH
Briefly: UGT1A1 inhibition by XueBiJing compounds, cDNA-expressed enzyme [E2→E23βG]. Format: in vitro ADME.

In another data set the target is CYP2C9 (Homo sapiens, UniProt P11712). It counts as in vitro ADME.
Chain of CYP2C9 (P11712 whole entry): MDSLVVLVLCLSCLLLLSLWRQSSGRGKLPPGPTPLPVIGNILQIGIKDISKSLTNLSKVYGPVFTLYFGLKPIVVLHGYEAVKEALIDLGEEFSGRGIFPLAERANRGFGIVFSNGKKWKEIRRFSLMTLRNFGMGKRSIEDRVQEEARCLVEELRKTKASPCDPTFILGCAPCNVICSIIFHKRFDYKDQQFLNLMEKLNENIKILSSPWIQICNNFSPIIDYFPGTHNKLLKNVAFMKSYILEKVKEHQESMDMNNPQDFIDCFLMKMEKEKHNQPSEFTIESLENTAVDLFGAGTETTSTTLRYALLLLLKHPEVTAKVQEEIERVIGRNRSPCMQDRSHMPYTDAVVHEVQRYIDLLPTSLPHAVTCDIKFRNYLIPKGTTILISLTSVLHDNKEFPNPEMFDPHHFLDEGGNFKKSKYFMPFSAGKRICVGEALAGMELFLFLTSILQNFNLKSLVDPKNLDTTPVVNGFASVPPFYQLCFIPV
The target in data set [1] is T2, OATP1B3 (Homo sapiens, UniProt Q9NPD5).
T2 sequence (Q9NPD5 1-702): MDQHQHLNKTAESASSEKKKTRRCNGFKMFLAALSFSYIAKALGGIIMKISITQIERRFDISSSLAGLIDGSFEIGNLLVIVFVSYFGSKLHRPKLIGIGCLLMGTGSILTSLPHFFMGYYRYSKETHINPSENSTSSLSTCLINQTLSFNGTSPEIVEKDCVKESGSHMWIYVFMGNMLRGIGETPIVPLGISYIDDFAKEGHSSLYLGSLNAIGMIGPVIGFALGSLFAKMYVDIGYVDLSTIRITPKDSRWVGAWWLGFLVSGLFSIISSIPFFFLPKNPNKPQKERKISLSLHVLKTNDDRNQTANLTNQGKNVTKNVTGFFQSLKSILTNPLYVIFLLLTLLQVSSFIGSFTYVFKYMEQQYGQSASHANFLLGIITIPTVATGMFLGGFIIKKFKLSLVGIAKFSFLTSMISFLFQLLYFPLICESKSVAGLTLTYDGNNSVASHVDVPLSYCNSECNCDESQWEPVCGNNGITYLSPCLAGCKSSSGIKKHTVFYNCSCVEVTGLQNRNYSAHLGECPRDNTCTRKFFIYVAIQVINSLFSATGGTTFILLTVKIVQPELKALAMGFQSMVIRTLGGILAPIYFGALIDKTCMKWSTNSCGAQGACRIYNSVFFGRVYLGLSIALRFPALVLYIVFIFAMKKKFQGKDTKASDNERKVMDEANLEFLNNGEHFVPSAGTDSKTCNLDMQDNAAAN
Put plainly: in vitro. Format: in vitro ADME.

Data set [2] concerns the target T2, OATP1B3.
In another data set the test system is CYP1A2. Particulars: higher concentrations; range over the named compounds and enzymes.
Data set [3] deals with T2, OATP1B3. Briefly: in vitro.
The conditions of data set [4]: XueBiJing compounds; cited from earlier work.

With `O=C(/C=C/c1ccc(O)c2c1[C@H](C(=O)O[C@H](Cc1ccc(O)c(O)c1)C(=O)O)[C@@H](c1ccc(O)c(O)c1)O2)O[C@H](Cc1ccc(O)c(O)c1)C(=O)O` [X10, salvianolic acid B], the values for the IC50 at UGT1A1 and at OATP1B3 [2] were 10 ± 1 µM and 18 ± 4 µM, respectively. Also, the inhibition at 100 μmol/L at UGT1A1 (human, cDNA-expressed UGT1A1, probe E2 (20 μmol/L), E23βG formed) is > 90%; against OATP1B3 [3], > 50%. The “Time-dependent inhibition of CYP2C9” value on CYP2C9 is “negligible”. Moreover, on OATP1B3 [1], the Km amounted to 14 µM. In addition, in the data set with CYP1A2, the “mRNA-T/U ratio, CYP1A2” value fell in the range of 4.0 to 9.6. Moreover, the Membrane permeability result in data set [4] is recorded as “Poor”.
